# From paper PMC9888433, “Biochemical and hydrogen-deuterium exchange studies of the single nucleotide polymorphism Y649C in human platelet 12-lipoxygenase linked to a bleeding disorder” (Archives of biochemistry and biophysics, 2022)
# Numbering of substitutions follows the chain as printed. Names and notes keep the numbering of the source.
# T1: human platelet 12-lipoxygenase (h12-LOX) Y649C (Homo sapiens, UniProt P18054, Y649C)
# T1 construct: gene ALOX12; Nt-6His-tag recombinant enzyme expressed in Sf9
# T1 sequence (P18054 1-663 Y649C): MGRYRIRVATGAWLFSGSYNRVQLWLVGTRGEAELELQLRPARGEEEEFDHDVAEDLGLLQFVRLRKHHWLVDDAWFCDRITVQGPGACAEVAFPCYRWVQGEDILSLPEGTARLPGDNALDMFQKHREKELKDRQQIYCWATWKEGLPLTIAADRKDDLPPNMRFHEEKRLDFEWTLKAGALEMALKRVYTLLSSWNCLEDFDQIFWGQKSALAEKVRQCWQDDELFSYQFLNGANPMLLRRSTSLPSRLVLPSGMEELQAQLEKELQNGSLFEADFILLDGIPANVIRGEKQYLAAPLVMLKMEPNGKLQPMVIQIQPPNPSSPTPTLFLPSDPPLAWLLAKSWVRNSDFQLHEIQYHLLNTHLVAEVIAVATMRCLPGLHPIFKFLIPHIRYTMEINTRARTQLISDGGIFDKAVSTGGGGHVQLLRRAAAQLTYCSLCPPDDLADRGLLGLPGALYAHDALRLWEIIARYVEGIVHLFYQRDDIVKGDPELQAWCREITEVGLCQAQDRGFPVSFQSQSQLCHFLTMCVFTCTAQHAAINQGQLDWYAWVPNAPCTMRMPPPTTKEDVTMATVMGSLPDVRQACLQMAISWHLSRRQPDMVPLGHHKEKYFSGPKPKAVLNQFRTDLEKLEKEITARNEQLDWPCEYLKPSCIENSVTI
# T2: human platelet 12-lipoxygenase (h12-LOX) (Homo sapiens, UniProt P18054)
# T2 construct: gene ALOX12; Nt-6His-tag recombinant enzyme expressed in Sf9
# T2 sequence (P18054 1-663): T1 sequence (P18054 1-663 Y649C) with C649Y
# T3: wild-type human platelet 12S-lipoxygenase (human), P18054
# T3 chain: T1 sequence (P18054 1-663 Y649C) with C649Y
# B1: wild-type human platelet 12S-lipoxygenase, P18054 1-663 (enzyme)
# chain: T1 sequence (P18054 1-663 Y649C) with C649Y
# B2: Y649C h12-LOX (enzyme, human, UniProt P18054 1-663, looked up)
# chain: T1 sequence (P18054 1-663 Y649C)
# notes: human platelet 12-lipoxygenase (h12-LOX), UniProt P18054, with the naturally occurring SNP Y649C made by site-directed mutagenesis; numbering as in UniProt P18054; Variant found in a family with a bleeding diathesis; metal content 20% by ICP-MS; also called Y649C SNP variant of h12-LOX
# Legend:
# [1] = target: T1, human platelet 12-lipoxygenase (h12-LOX) Y649C; assay: steady-state Michaelis-Menten kinetics ([…] nm), kcat/KM at […] °C; LC-MS/MS products; assay type: biochemical
# [2] = target: T2, human platelet 12-lipoxygenase (h12-LOX); assay: as above; assay type: biochemical
# [3] = target: T2, human platelet 12-lipoxygenase (h12-LOX); assay: as above; assay type: biochemical; remark: listed apart in the source
# [4] = target: T1, human platelet 12-lipoxygenase (h12-LOX) Y649C; assay: as above; assay type: biochemical; remark: listed apart in the source
# [5] = target: T3, wild-type human platelet …; assay: SEC; affinity-purified protein on Superdex 75 10/300 GL, 25 mM HEPES (pH 8), 0.3 mL/min; elution compared with gel filtration standards; settings: remark: other sources report otherwise
# [6] = target: the molecule itself; assay: as above
molecule,measurement,setting,value
"CC/C=C\C/C=C\C/C=C\C/C=C\C/C=C\C/C=C\CCC(=O)O [DHA, docosahexaenoic acid]","steady-state Michaelis-Menten kinetics (234 nm), kcat/KM at 22 °C; LC-MS/MS prod",[1],960000 M⁻¹ s⁻¹
same,"steady-state Michaelis-Menten kinetics (234 nm), kcat/KM at 22 °C; LC-MS/MS prod",[2],7.7e+06 M⁻¹ s⁻¹
"CCCCC/C=C\C/C=C\C/C=C\C/C=C\CCCC(=O)O [AA, arachidonic acid]",kcat/KM (μM^-1sec^-1) / WT,[3],8.7 µM⁻¹ s⁻¹
same,kcat/KM (μM^-1sec^-1) / Y649C,[4],6 µM⁻¹ s⁻¹
B1,stoichiometry N,[5],2
B2,stoichiometry N,[6],2
